Data as given in PMC9609714, “Exploring Novel Pyridine Carboxamide Derivatives as Urease Inhibitors: Synthesis, Molecular Docking, Kinetic Studies and ADME Profile” (Pharmaceuticals, 2022).
Read-outs that look alike come from different tables or passages of the source.

Key:
urease [1] = molecular target: T1, urease (Canavalia ensiformis, UniProt P07374); assay: biochemical
Procedure: The indophenol method was adopted for the estimation of urease inhibition activity for synthesized compounds with minor modification. In the assay, the total volume was kept at 100 µL which was composed of 10 µL urease having a concentration of 5 U/mL, 40 µL of phosphate buffer (0.01mM K2HPO4+ EDTA + […]); pH was adjusted to 8.15 using 40 µL of phenol reagent (1%, phenol, and sodium nitroprusside) and alkali reagent. This alkali reagent was composed of 0.5% of sodium hydroxide and 0.1% of active chloride (NaOCl). For the determination of urease activity, the test compound and enzyme were incubated for 30 min at 37 °C in the assay buffer; then phenol/alkali reagent was added. All reactions were performed in 96 well plates in a triplicate manner. Absorbance was measured at a wavelength of 625 nm using the instrument FLUOstar® Omega (BMG LABTECH, Ortenberg, Germany). Initially, the percentage inhibition was estimated for the test compounds and compared with a standard inhibitor of urease (thioureas). […] GraphPad (PRISM 8.0, San Diego, CA, USA) was utilized for the calculations of IC50 values. The synthesized compounds were dissolved in absolute ethanol for the percentage inhibition assay whereas dilutions were prepared in deionized water by keeping the final concentration at up to 1%. The standard inhibitor (thioureas) was used as a positive control in the assay whereas 1% ethanol was employed as a negative control during the assay.

urease [2] = molecular target: T1, urease; assay: Enzyme kinetics study (Lineweaver–Burk plot) of urease inhibition; type: biochemical; settings: compound 0.10-1.6 µM
Description: By calculating the Lineweaver–Burk plot, the competitive mode of inhibition was shown by the compound Rx-6.

T1 sequence (P07374 whole entry, looked up): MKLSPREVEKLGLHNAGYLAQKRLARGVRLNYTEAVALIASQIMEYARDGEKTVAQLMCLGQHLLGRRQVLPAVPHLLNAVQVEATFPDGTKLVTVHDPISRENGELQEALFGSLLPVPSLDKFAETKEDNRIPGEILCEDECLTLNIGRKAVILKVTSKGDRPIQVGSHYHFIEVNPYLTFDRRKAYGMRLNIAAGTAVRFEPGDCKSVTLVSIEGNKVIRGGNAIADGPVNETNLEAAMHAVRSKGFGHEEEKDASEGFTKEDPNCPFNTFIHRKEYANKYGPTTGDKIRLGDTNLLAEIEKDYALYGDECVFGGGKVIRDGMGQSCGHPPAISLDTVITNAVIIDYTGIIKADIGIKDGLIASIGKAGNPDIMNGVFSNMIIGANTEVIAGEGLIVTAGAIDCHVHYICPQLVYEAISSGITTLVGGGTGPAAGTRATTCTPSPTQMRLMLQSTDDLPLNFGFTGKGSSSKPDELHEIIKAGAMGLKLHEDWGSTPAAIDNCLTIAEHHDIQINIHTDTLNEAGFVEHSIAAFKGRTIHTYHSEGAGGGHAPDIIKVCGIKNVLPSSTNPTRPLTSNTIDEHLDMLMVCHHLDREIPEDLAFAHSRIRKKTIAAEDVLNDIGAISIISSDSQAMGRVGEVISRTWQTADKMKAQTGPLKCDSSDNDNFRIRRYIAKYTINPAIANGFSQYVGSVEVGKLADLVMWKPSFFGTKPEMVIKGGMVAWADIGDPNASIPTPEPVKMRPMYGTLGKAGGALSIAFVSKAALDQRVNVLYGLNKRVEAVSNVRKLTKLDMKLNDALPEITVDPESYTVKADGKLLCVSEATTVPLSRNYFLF

| SMILES | IC50 (urease [1]) [µM] | melting point [°C] | mode of inhibition (Lineweaver–Burk plot) (urease [2]) | IC50 (urease [1]; urease 5 U/mL, 30 min at 37 °C, pH 8.15, triplicate, read-out: IC50 ± SEM) [µM] |
| --- | --- | --- | --- | --- |
| N/C(S)=N/N=C/c1ccccn1 [Rx-1, Pyridine-2-yl-methylene thiosemicarbazide] | 3.23 ± 0.015 | – | – | – |
| NC(=O)N/N=C/c1cccc(C(F)(F)F)n1 [Rx-11, 6-Trifluoromethyl pyridine-2-yl methylene hydrazine carboxamide] | 5.96 ± 0.005 | 233 to 235 | – | – |
| NC(=S)N/N=C/c1ccc(Cl)cn1 [Rx-6, 5-Chloropyridine-2-yl methylene hydrazinecarbothioamide] | 1.07 ± 0.043 | 244 to 246 | competitive | – |
| NC(=O)N/N=C/c1cccc(Br)n1 [Rx-9, 6-Bromopyridine-2-yl methylene hydrazinecarboxamide] | 14.49 ± 0.067 | 231 to 233 | – | – |
| Cc1cccc(/C=N/NC(N)=O)n1 [Rx-8, 6-Methylpyridine-2-yl methylene hydrazinecarboxamide] | 3.41 ± 0.011 | 218 to 219 | – | – |
| NC(=O)N/N=C/c1ccc(Cl)cn1 [Rx-12, 5-Chloropyridine-2yl-methylene hydrazine carboxamide] | 4.07 ± 0.003 | 221 to 223 | – | – |
| NC(N)=S [Thiourea, reference compound] | – | – | – | 18.93 ± 0.004 |
| NC(=S)N/N=C/c1cccc(Br)n1 [Rx-3, 6-Bromopyridine-2-yl methylene hydrazine-1-carbothioamide] | 3.13 ± 0.034 | 192 to 194 | – | – |
| COc1cccc(/C=N/NC(N)=S)n1 [Rx-4, 6-Methoxypyridine-2-yl methylene thiosemicarbazide] | 4.21 ± 0.022 | – | – | – |
| NC(=S)N/N=C/c1cccc(C(F)(F)F)n1 [Rx-5, 6-Trifluoromethyl pyridine-2-yl methylene hydrazine-1-carbothioamide] | 4.93 ± 0.012 | – | – | – |
| NC(=O)N/N=C/c1ccccn1 [Rx-7, 2-Pyridine-2-yl-methylene hydrazine carboxamide] | 2.18 ± 0.058 | – | – | – |
| COc1cccc(/C=N/NC(N)=O)n1 [Rx-10, 6-Methoxypyridine-2-yl methylene hydrazine carboxamide] | 5.52 ± 0.072 | 193 | – | – |
| Cc1cccc(/C=N/NC(N)=S)n1 [Rx-2, 6-Methylpyridine-2-yl methylene hydrazine-1-carbothioamide] | 6.41 ± 0.023 | – | – | – |
